Values after ≈ are worked out from the molar mass of the structure shown. Read-outs that look alike come from different tables or passages of the source.
Tests used:
S. aureus UC9213 = experiment: Murine Assay, in vivo antimicrobial activity (ED50, survival); set-up: species or system Staphylococcus aureus (infected female mice); settings: Staphylococcus aureus, 144 h, read-out: ED50 (S. aureus UC9213, sq)
Procedure: Antimicrobial activity was tested in vivo using the Murine Assay procedure. Groups of female mice (six mice of 18-20 grams each) are injected intraperitoneally with bacteria which is thawed just prior to use and suspended in brain heart infusion with 4% brewer's yeast (Staphylococcus aureus) or brain heart infusion (Streptococcus species). Antibiotic treatment at six dose levels per drug is administered one hour and five hours after infection by either oral intubation or subcutaneous routes. Survival is observed daily for six days. ED50 values based on mortality ratios are calculated using probit analysis. The subject compounds are compared against well-known antimicrobials as controls.

[1] = system: Staphylococcus Aureus 9213; experiment: MIC by agar dilution (NCCLS), Staphylococcus aureus 9213; format: cell-based
Procedure: (§1) The saturated and unsaturated 3-aryl butyrolactone compounds of the present invention have useful activity against a variety of organisms. The in vitro activity of compounds of the present invention are assessed by standard testing procedures such as the determination of minimum inhibitory concentration (MIC) by agar dilution as described in "Methods for Dilution Antimicrobial Susceptiblity Tests for Bacteria That Grow Aerobically" (MFT) published January 1993 by the National Committee for Clinical Laboratory Standards. (NCCLS), 771 East Lancaster Avenue, Villanova, Pa. 19084 USA. The activity of selected compounds of the present invention against Staphylococcus aureus and Streptococcus pneumoniae are shown in Table 1.

[2] = system: Staphylococcus Pneumoniae 9912; experiment: MIC by agar dilution (NCCLS), Streptococcus pneumoniae 9912; format: cell-based; settings: S. pneumoniae 9912
Procedure: as §1

`CN[C@H](CC(C)C)C(=O)N[C@H]1C(=O)N[C@@H](CC(N)=O)C(=O)N[C@H]2C(=O)N[C@H]3C(=O)N[C@H](C(=O)N[C@H](C(=O)O)c4cc(O)cc(O)c4-c4cc3ccc4O)[C@H](O)c3ccc(c(Cl)c3)Oc3cc2cc(c3O[C@@H]2O[C@H](CO)[C@@H](O)[C@H](O)[C@H]2O[C@H]2C[C@](C)(N)[C@H](O)[C@H](C)O2)Oc2ccc(cc2Cl)[C@H]1O` [Vancomycin, reference compound] gave an ED50 (S. aureus UC9213; UC9213, infected ip) of 1.9 mg/kg and an MIC ([1]; AUREUS9213, read-out: Vancomycin MIC) of 1 µg/mL (≈ 0.69 µM).

`COc1ccc(-c2ccc(C3=CC(CNC(C)=O)OC3=O)cc2)ccc1=O` (centres unmarked) [Example 1, Acetamide, N-[[4-[4-[4-(2-methoxy)-5-oxo-1,3,6-cycloheptatrien-1-yl]phenyl]-2,5-dihydro-5-oxo-2-furanyl]methyl]-] was tested, and the ED50 (S. aureus UC9213; infected ip, mice infected i.p. with S. aureus UC9213, sq treatment 1 h and 5 h after infection, survival six days, probit analysis) was 9.3 mg/kg, the MIC [2] was less than 0.5 µg/mL and the MIC ([1]; AUREUS9213, agar dilution, S. aureus 9213, read-out: MIC Staphylococcus Aureus 9213) was 2 µg/mL (≈ 5.47 µM).

Reference: patent US5708169A, “5-amidomethyl α,β-saturated and -unsaturated 3-aryl butyrolactone antibacterial agents” (Pharmacia & Upjohn Company, priority 1996, dated 1998)
